Where “and” joins values, the source holds several entries; their conditions need not be identical. Equal entries are not always repeated. Structures can show the parent of a compound that is named as a salt. Where two headings read alike, the source gives them in different places.
Key:
Leptosphaeria nodorum = Leptosphaeria nodorum test (wheat)/preventive; format: in vivo; conditions: preventive, evaluated 8 days after inoculation
Septoria tritici = assay: Septoria tritici-test (wheat)/preventive; format: in vivo; conditions: preventive, evaluated 21 days after inoculation
Phytophthora infestans = format: in vivo
Botrytis cinerea = assay: Botrytis test (beans)/preventive
Method: Botrytis Test (Beans)/Preventive
(§1) • Solvent: 24.5 parts by weight of acetone • 24.5 parts by weight of dimethylacetamide • Emulsifier: 1 part by weight of alkylaryl polyglycol ether
After the spray coating has dried on, 2 small pieces of agar covered with growth of Botrytis cinerea are placed on each leaf. The inoculated plants are placed in a darkened chamber at 20° C. and a relative atmospheric humidity of 100%.
2 days after the inoculation, the size of the lesions on the leaves is evaluated.

Sphaerotheca fuliginea = assay: Sphaerotheca test (cucumbers)/preventive; format: in vivo
Venturia inaequalis = assay: Venturia test (apples)/preventive
Method: Venturia Test (Apples)/Preventive
as §1
After the spray coating has dried on, the plants are inoculated with an aqueous conidia suspension of the causal agent of apple scab (Venturia inaequalis) and then remain for 1 day in an incubation cabinet at approximately 20° C. and a relative atmospheric humidity of 100%.
The plants are then placed in a greenhouse at approximately 21° C. and a relative atmospheric humidity of approximately 90%.
The test is evaluated 10 days after the inoculation.

Alternaria solani = assay: Alternaria test (tomatoes)/preventive; format: in vivo
Pyrenophora teres = assay: Pyrenophora teres-test (barley)/preventive; format: in vivo; conditions: preventive, evaluated 8 days after inoculation
[1] = system: Blumeria graminis fsp. hordei; assay: Blumeria test (barley)/preventive; format: in vivo
Excerpt: After the spray coating has been dried, the plants are dusted with spores of Blumeria graminis fsp. hordei.

Plasmopara viticola = assay: Plasmopara test (grapevines)/preventive; format: in vivo
Puccinia triticina = assay: Puccinia triticina-test (wheat)/preventive; format: in vivo; conditions: preventive, evaluated 8 days after inoculation

Fc1ccc([C@]2(Cn3cncn3)O[C@H]2c2ccccc2Cl)cc1 (racemic) [(1.12), epoxiconazole]
Efficacy in % found (Leptosphaeria nodorum; 31.25 ppm a.i.): 71%
Efficacy in % found (Septoria tritici; 62.5 ppm a.i.): 71%

C[C@@]1(c2ccc(Oc3ccccc3)cc2)OC(=O)N(Nc2ccccc2)C1=O (racemic) [(3.6), famoxadone]
Efficacy in % found (Phytophthora infestans; application rate 0.4 ppm a.i.): 0%

CC1(C(=O)Nc2ccc(O)c(Cl)c2Cl)CCCCC1 [(1.16), fenhexamid]
Efficacy in % found (Botrytis cinerea; application rate 10 ppm a.i.): 0%

O=c1c2cc(F)ccc2nc(-n2cncn2)n1-c1ccc(Cl)cc1Cl [(1.19), fluquinconazole]
Efficacy in % found (Sphaerotheca fuliginea; application rate 1 ppm a.i.): 78%
Efficacy in % found (Leptosphaeria nodorum; 31.25 ppm a.i.): 43%
Efficacy in % found (Septoria tritici; 62.5 ppm a.i.): 86%

Cn1cc(C(=O)Nc2ccc(F)cc2-c2ccc(Cl)c(Cl)c2)c(C(F)F)n1 [(2.2), bixafen]
Efficacy in % found (Venturia inaequalis; application rate 1 ppm a.i.): 64%

O=C(NCCc1ncc(C(F)(F)F)cc1Cl)c1ccccc1C(F)(F)F [(2.6), fluopyram]
Efficacy in % found (Alternaria solani; application rate 1 ppm a.i.): 55%
Efficacy in % found (Sphaerotheca fuliginea; application rate 4 ppm a.i.): 0%
Efficacy in % found (Pyrenophora teres; 31.25 ppm a.i.): 88%
Efficacy in % found (Septoria tritici; 31.25 ppm a.i.): 80%
Efficacy in % found (Venturia inaequalis; application rate 2 ppm a.i.): 28%

CC(C)C1C2CCC1c1c(NC(=O)c3cn(C)nc3C(F)F)cccc12 (stereo not drawn) [(2.10), isopyrazam]
Efficacy in % found (Alternaria solani; application rate 0.5 ppm a.i.): 50%
Efficacy in % found (Venturia inaequalis; application rate 1 ppm a.i.): 49%

Cc1nn(C)c(F)c1C(=O)Nc1ccccc1C(C)CC(C)C (stereo not drawn) [(2.19), penflufen]
Efficacy in % found (Alternaria solani; application rate 1 ppm a.i.): 30%
Efficacy in % found (Sphaerotheca fuliginea; application rate 4 ppm a.i.): 0%
Efficacy in % found ([1]; application rate 125 ppm a.i.): 67% and 56%
Efficacy in % found (Venturia inaequalis; application rate 4 ppm a.i.): 0%

CC(C)CC(C)c1sccc1NC(=O)c1cn(C)nc1C(F)(F)F (stereo not drawn) [(2.20), penthiopyrad]
Efficacy in % found (Alternaria solani; application rate 0.5 ppm a.i.): 53%
Efficacy in % found (Venturia inaequalis; application rate 2 ppm a.i.): 41%

Cn1cc(C(=O)Nc2ccccc2C2CC2C2CC2)c(C(F)F)n1 (stereo not drawn) [(2.21), sedaxane]
Efficacy in % found (Alternaria solani; application rate 1 ppm a.i.): 40%
Efficacy in % found (Venturia inaequalis; application rate 2 ppm a.i.): 69%

Cn1cc(C(=O)Nc2ccccc2-c2cc(F)c(F)c(F)c2)c(C(F)F)n1 [(2.45), 3-(difluoromethyl)-1-methyl-N-(3′,4′,5′-trifluorobiphenyl-2-yl)-1H-pyrazole-4-carboxamide]
Efficacy in % found (Sphaerotheca fuliginea; application rate 2 ppm a.i.): 30%

CO/C=C(/C(=O)OC)c1ccccc1Oc1cc(Oc2ccccc2C#N)ncn1 [(3.2), azoxystrobin]
Efficacy in % found (Alternaria solani; application rate 0.25 ppm a.i.): 50%
Efficacy in % found (Sphaerotheca fuliginea; application rate 1 ppm a.i.): 10%
Efficacy in % found (Leptosphaeria nodorum; 31.25 ppm a.i.): 67%
Efficacy in % found (Leptosphaeria nodorum; 62.5 ppm a.i.): 86%

Cc1ccc(-c2c(Cl)nc(C#N)n2S(=O)(=O)N(C)C)cc1 [(3.3), cyazofamid]
Efficacy in % found (Plasmopara viticola; application rate 0.4 ppm a.i.): 0%

CSC1=N[C@@](C)(c2ccccc2)C(=O)N1Nc1ccccc1 [(3.7), fenamidone]
Efficacy in % found (Phytophthora infestans; application rate 0.2 ppm a.i.): 0%

CO/N=C(/C1=NOCCO1)c1ccccc1Oc1ncnc(Oc2ccccc2Cl)c1F [(3.8), fluoxastrobin]
Efficacy in % found (Alternaria solani; application rate 2 ppm a.i.): 70%
Efficacy in % found (Leptosphaeria nodorum; 31.25 ppm a.i.): 71%
Efficacy in % found (Septoria tritici; 62.5 ppm a.i.): 71%
Efficacy in % found (Venturia inaequalis; application rate 0.5 ppm a.i.): 88%

COC(=O)N(OC)c1ccccc1COc1ccn(-c2ccc(Cl)cc2)n1 [(3.13), pyraclostrobin]
Efficacy in % found (Sphaerotheca fuliginea; application rate 1 ppm a.i.): 0%
Efficacy in % found (Leptosphaeria nodorum; 31.25 ppm a.i.): 57%
Efficacy in % found (Puccinia triticina; 62.5 ppm a.i.): 63%

CON=C(C(=O)OC)c1ccccc1CON=C(C)c1cccc(C(F)(F)F)c1 [(3.17), trifloxystrobin]
Efficacy in % found (Alternaria solani; application rate 2 ppm a.i.): 60%
Efficacy in % found (Sphaerotheca fuliginea; application rate 2 ppm a.i.): 27%
Efficacy in % found (Pyrenophora teres; 62.5 ppm a.i.): 75%
Efficacy in % found (Puccinia triticina; 62.5 ppm a.i.): 78%

CCC(C)(NC(=O)c1cc(Cl)c(C)c(Cl)c1)C(=O)CCl (stereo not drawn) [(4.9), zoxamide]
Efficacy in % found (Plasmopara viticola; application rate 0.4 ppm a.i.): 0%

N#Cc1c(Cl)c(Cl)c(Cl)c(C#N)c1Cl [(5.4), chlorothalonil]
Efficacy in % found (Alternaria solani; application rate 50 ppm a.i.): 24%
Efficacy in % found (Venturia inaequalis; application rate 25 ppm a.i.): 83%

O=C1c2ccccc2C(=O)N1SC(Cl)(Cl)Cl [(5.9), folpet]
Efficacy in % found (Botrytis cinerea; application rate 12.5 ppm a.i.): 11%

[Cl-].[Cu+2].[Cu+2].[OH-].[OH-].[OH-] [(5.15), copper oxychloride]
Efficacy in % found (Alternaria solani; application rate 50 ppm a.i.): 41%
Efficacy in % found (Venturia inaequalis; application rate 50 ppm a.i.): 40%

[Cu+2].[OH-].[OH-] [(5.16), copper hydroxide]
Efficacy in % found (Alternaria solani; application rate 50 ppm a.i.): 47%
Efficacy in % found (Venturia inaequalis; application rate 25 ppm a.i.): 57%

Cc1cc(C)nc(Nc2ccccc2)n1 [(7.7), pyrimethanil]
Efficacy in % found (Botrytis cinerea; application rate 50 ppm a.i.): 11%

COc1ccc(C(=CC(=O)N2CCOCC2)c2ccc(Cl)cc2)cc1OC [(9.2), dimethomorph]
Efficacy in % found (Plasmopara viticola; application rate 0.2 ppm a.i.): 0%

Cc1ccc(C(C)NC(=O)[C@@H](NC(=O)OC(C)C)C(C)C)cc1 (stereo partly drawn) [(9.4), iprovalicarb]
Efficacy in % found (Plasmopara viticola; application rate 0.4 ppm a.i.): 0%

C#CCOc1ccc(CCNC(=O)C(OCC#C)c2ccc(Cl)cc2)cc1OC (stereo not drawn) [(9.5), mandipropamid]
Efficacy in % found (Plasmopara viticola; application rate 0.1 ppm a.i.): 14%
Efficacy in % found (Plasmopara viticola; application rate 0.2 ppm a.i.): 25%

CCCOC(=O)NCCCN(C)C [(10.11), propamocarb-hydrochloride]
Efficacy in % found (Phytophthora infestans; application rate 10 ppm a.i.): 0%

COC(=O)[C@@H](C)N(C(=O)Cc1ccccc1)c1c(C)cccc1C [(12.2), benalaxyl-M]
Efficacy in % found (Plasmopara viticola; application rate 0.2 ppm a.i.): 0%
Efficacy in % found (Plasmopara viticola; application rate 0.4 ppm a.i.): 0%

COCC(=O)N(c1c(C)cccc1C)[C@H](C)C(=O)OC [(12.10), metalaxyl-M]
Efficacy in % found (Plasmopara viticola; application rate 0.4 ppm a.i.): 57%

O=[N+]([O-])c1cc(C(F)(F)F)c(Cl)c([N+](=O)[O-])c1Nc1ncc(C(F)(F)F)cc1Cl [(14.2), fluazinam]
Efficacy in % found (Phytophthora infestans; application rate 0.5 ppm a.i.): 0%

CCCCCCCCc1c(CC)nc2ncnn2c1N [(15.1), ametoctradin]
Efficacy in % found (Phytophthora infestans; application rate 0.5 ppm a.i.): 0%

CCNC(=O)NC(=O)/C(C#N)=N/OC [(15.7), cymoxanil]
Efficacy in % found (Phytophthora infestans; application rate 1 ppm a.i.): 0%

O=C(NCc1ncc(C(F)(F)F)cc1Cl)c1c(Cl)cccc1Cl [(15.17), fluopicolide]
Efficacy in % found (Plasmopara viticola; application rate 0.4 ppm a.i.): 43%

CCO[PH](=O)O [(15.20), fosetyl-Al]
Efficacy in % found (Phytophthora infestans; application rate 10 ppm a.i.): 3%

C#CCCOC(=O)Nc1cccc(CO/N=C(/c2ccccc2)c2nnnn2C)n1 [(15.96), but-3-yn-1-yl {6-[({[(Z)-(1-methyl-1H-tetrazol-5-yl)(phenyl)methylene]amino}oxy)methyl]pyridin-2-yl}carbamate]
Efficacy in % found (Phytophthora infestans; application rate 0.2 ppm a.i.): 53%
Efficacy in % found (Plasmopara viticola; application rate 0.4 ppm a.i.): 46%

O=C(OCc1c(F)cccc1Cl)c1csc(C2CCN(C(=O)Cn3nc(C(F)F)cc3C(F)F)CC2)n1 [(I-16)]
Efficacy in % found (Phytophthora infestans; application rate 0.2 ppm a.i.): 70%
Efficacy in % found (Phytophthora infestans; application rate 0.4 ppm a.i.): 61% and 74%
Efficacy in % found (Plasmopara viticola; application rate 0.2 ppm a.i.): 29%
Efficacy in % found (Plasmopara viticola; application rate 0.4 ppm a.i.): 0%
Efficacy in % found (Alternaria solani; application rate 25 ppm a.i.): 30%
Efficacy in % found (Alternaria solani; application rate 200 ppm a.i.): 47%
Efficacy in % found (Sphaerotheca fuliginea; application rate 25 ppm a.i.): 30%
Efficacy in % found (Sphaerotheca fuliginea; application rate 50 ppm a.i.): 30%
Efficacy in % found ([1]; application rate 1000 ppm a.i.): 0%
Efficacy in % found (Leptosphaeria nodorum; 1000 ppm a.i.): 0%
Efficacy in % found (Pyrenophora teres; 500 ppm a.i.): 0%
Efficacy in % found (Pyrenophora teres; 1000 ppm a.i.): 25% and 13%
Efficacy in % found (Puccinia triticina; 500 ppm a.i.): 13%
Efficacy in % found (Puccinia triticina; 1000 ppm a.i.): 38%
Efficacy in % found (Botrytis cinerea; application rate 50 ppm a.i.): 0%
Efficacy in % found (Botrytis cinerea; application rate 200 ppm a.i.): 0%
Efficacy in % found (Venturia inaequalis; application rate 200 ppm a.i.): 33%

boscalid [(2.3)]
Efficacy in % found (Puccinia triticina; 250 ppm a.i.): 38%
Efficacy in % found (Puccinia triticina; 500 ppm a.i.): 56%

fenpiclonil [(13.1)]
Efficacy in % found (Leptosphaeria nodorum; 500 ppm a.i.): 71%
Efficacy in % found (Pyrenophora teres; 500 ppm a.i.): 88%

fludioxonil [(13.2)]
Efficacy in % found (Leptosphaeria nodorum; 250 ppm a.i.): 43%
Efficacy in % found (Pyrenophora teres; 125 ppm a.i.): 88%
Efficacy in % found (Botrytis cinerea; application rate 10 ppm a.i.): 15%

mancozeb [(5.19)]
Efficacy in % found (Alternaria solani; application rate 12.5 ppm a.i.): 18%
Efficacy in % found (Alternaria solani; application rate 50 ppm a.i.): 76%
Efficacy in % found (Venturia inaequalis; application rate 12.5 ppm a.i.): 53%

phosphorous acid and its salts [(15.62)]
Efficacy in % found (Phytophthora infestans; application rate 10 ppm a.i.): 19%

propiconazole [(1.40)]
Efficacy in % found (Sphaerotheca fuliginea; application rate 2 ppm a.i.): 78%
Efficacy in % found (Puccinia triticina; 125 ppm a.i.): 78%

propineb [(5.23)]
Efficacy in % found (Alternaria solani; application rate 50 ppm a.i.): 53%

prothioconazole [(1.41)]
Efficacy in % found (Sphaerotheca fuliginea; application rate 0.5 ppm a.i.): 37%
Efficacy in % found (Leptosphaeria nodorum; 62.5 ppm a.i.): 43%
Efficacy in % found (Septoria tritici; 125 ppm a.i.): 86%

spiroxamine [(1.46)]
Efficacy in % found ([1]; application rate 250 ppm a.i.): 94%
Efficacy in % found (Puccinia triticina; 500 ppm a.i.): 56%

tebuconazole [(1.47)]
Efficacy in % found (Sphaerotheca fuliginea; application rate 4 ppm a.i.): 67%
Efficacy in % found (Pyrenophora teres; 125 ppm a.i.): 38%
Efficacy in % found (Venturia inaequalis; application rate 4 ppm a.i.): 43%

triadimenol [(1.51)]
Efficacy in % found (Leptosphaeria nodorum; 250 ppm a.i.): 50% and 43%

— patent publication US20110124501A1, “Active compound combinations” (Bayer CropScience AG, priority 2009, published 2011)
